Patent US12239643B2, “Therapeutic agent for inflammatory diseases, autoimmune diseases, fibrotic diseases, and cancer diseases” (MEIJI SEIKA PHARMA CO., LTD., priority 2018, dated 2025)
Read-outs that look alike come from different tables or passages of the source.

Columns and labels:
PDE4 = assay: Evaluation of PDE4 inhibitory activity, scintillation proximity assay; format: biochemical; conditions: for PDE4 inhibitory activity: summary in words of Tables 57 to 69
Method in brief: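 IC50 was derived from inhibition curves, referenced to an enzyme-free blank and a DMSO-only control. Compound, PDE4 preparation and tritiated cAMP reacted 120 min at RT in Tris-HCl buffer (pH 7.4) with MgCl2, EGTA and BSA; YSi-SPA beads with ZnSO4 bound product before scintillation counting.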

[1] = Hepatic metabolic stability (rat liver microsome method); format: in vitro ADME; conditions: rat liver microsomes 0.5 mg/mL, test substance 1 μM, NADPH 1 mM, 37° C., 30 minutes
Method in brief: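 Scored by % parent left after 30 min (30 min/0 min ×100, LC-MS), banded A ≥75%, B 60–<75%, C 45–<60%, D <45%. Incubation: 1 μM compound, 0.5 mg/mL rat microsomes, pH 7.4 phosphate buffer, 37° C, 5 min preincubation, NADPH 1 mM started, acetonitrile quench.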

TNFα [2] = assay: Cytokine suppression using whole human blood: TNFα (lipopolysaccharide stimulus); format: cell-based; conditions: human whole blood, read-out: TNFα Inhibitory Activity, Human Whole Blood (Test Example 3)
Description: The test compound dissolved in dimethyl sulfoxide was added to a 96-well plate, and RPMI-1640 medium and human peripheral blood containing sodium heparin were added, followed by culture at 37° C. under 5% CO2 for 1 hour. A medium containing only dimethyl sulfoxide instead of the test compound was added to the control well. To each well, lipopolysaccharide (final concentration 10 ng/mL) as a TNFα production stimulant, or phytohaemagglutinin (final concentration 20 μg/mL) as an IL-17A production stimulant, or CytoStim reagent ( 1/100 concentration) and CD28 antibody (final concentration 2.5 ng/mL) as an IL-4 production stimulant and an IL-5 production stimulant were added, followed by culture at 37° C. under 5% CO2. The culture was carried out for about 18 hours for the evaluation of the amount of TNFα, and for about 48 hours for the evaluation of the amounts of IL-17A, IL-4, and IL-5.
After collecting the culture supernatant after culturing, the amount of each cytokine was measured by the sandwich ELISA method. The cytokine production suppression rate (inhibition rate) by the test compound was calculated by the following formula from the cytokine production amount when the test compound was added, with the cytokine production amount for the control well as 100%. Inhibition Rate={1−(Cytokine Amount at Addition of Each Test Compound)/(Cytokine Amount for Control Well)}×100
In addition, the cytokine inhibitory activity (concentration for the inhibition rate of 50%) of the test compound was calculated from the inhibition curves based on the inhibition rates for various concentrations of the test compound.
The measurement results obtained by measuring the TNFα inhibitory activity and IL-5 inhibitory activity (50% inhibitory concentration) of the test compounds by the above method were evaluated in accordance with the following evaluated basis; A: less than 100 nM, B: 100 nM or more and less than 500 nM, and C: 500 nM or more. In addition, the measurement results obtained by measuring the IL-17A inhibitory activity and IL-4 inhibitory activity (50% inhibitory concentration) of the test compounds were evaluated in accordance with the following evaluated basis; A: less than 500 nM, B: 500 nM or more and less than 5000 nM, and C: 5000 nM or more.

[3] = tested on: oxazolone-induced auricle edema, BALB/c mice; assay: Hapten repeated application mouse chronic dermatitis model (oral, topical); format: in vivo; conditions: for Mouse Chronic Dermatitis Model (Test Example 8), Oral: edema suppression rate: 0.3 to 10 mg/kg twice a day for 10 days; for Mouse Chronic Dermatitis Model (Test Example 8), Topical: edema suppression rate: 20 μL of 0.3 to 3% solution once or twice a day for 10 days
Description: Evaluation was carried out using female BALB/c mice (7 to 8 weeks of age). First, the hair of the abdomen of the mice was treated with a hair clipper, and then 150 μL of a 3% oxazolone acetone/ethanol solution was applied to the abdomen as a hapten. One week later, 20 μL/ear of 1% oxazolone acetone/ethanol solution was applied to the outer surface of the auricle of both ears of the mice 3 times/week to induce inflammation. A 1% oxazolone-acetone/ethanol solution was applied every other day for 10 days from 1 week after the start of inflammation induction. In addition, for 10 days from 1 week after the start of inflammation induction, the test compound suspended in 0.5% w/v methylcellulose (0.5% MC) was orally administered at 0.3 to 10 mg/kg twice a day (10 μL/g), or 20 μL of a 0.3 to 3% test compound dissolved in an acetone/ethanol solution was applied once or twice a day (topical administration). A 1% oxazolone was not applied to the blank. The control was one in which 1% oxazolone was applied and only 0.5% MC was orally administered without using the test compound, or only an acetone/ethanol solution was applied.
After administration for 10 days, auricle thickness was measured using a dial thickness gauge, and the changes in auricular thickness before the treatment (immediately before the start of administration of the test compound) and after the treatment (after the administration of the test compound for 10 days) were used to calculate the edema suppression rate by the following formula. Edema Suppression Rate (%)={1−(Auricle Thickness After Treatment by Test Compound−Auricle Thickness Before Treatment by Test Compound)/(Auricle Thickness After Treatment of Control−Auricle Thickness Before Treatment of Control)}×100
The measurement results obtained by measuring the edema suppression rate at the time of oral administration of each test compound by the above method were evaluated in accordance with the following evaluated basis; A: 70% or more, B: 40% or more and less than 70%, and C: less than 40%. In addition, the measurement results obtained by measuring the edema suppression rate at the time of topical administration of each test compound were evaluated in accordance with the following evaluated basis; A: 100% or more, B: 70% or more and less than 100%, and C: less than 70%.

[4] = tested on: oxazolone-induced auricle edema, BALB/c mice; assay: Mouse delayed type hypersensitivity (DTH) model (topical); format: in vivo; conditions: 20 μL applied to auricle, 24 hours after application
Description: Evaluation was carried out using female BALB/c mice (7 to 8 weeks of age). First, the hair of the abdomen of the mice was treated with a hair clipper, and then 150 μL of a 3% oxazolone acetone/ethanol solution was applied to the abdomen as a hapten. Five days later, 20 μL/ear of a 1% oxazolone.acetone/ethanol solution was applied to the outer surface of the auricle of both ears of the mouse to induce inflammation. Thirty minutes after the start of inflammation induction, 20 μL of the test compound dissolved in an acetone/ethanol solution was applied to the auricle. A 1% oxazolone was not applied to the blank. The control was one in which 1% oxazolone was applied and only an acetone/ethanol solution was applied without using the test compound. The auricle thickness 24 hours after application of the test compound was measured with a dial thickness gauge, and the value obtained by subtracting the blank value was used to calculate the edema suppression rate by the following formula. Edema Suppression Rate (%)={1−(Value at Addition of Each Test Compound−Blank Value)/(Control Value−Blank Value)}×100 The measurement results obtained by measuring the edema suppression rate at the time of topical administration of each test compound by the above method were evaluated in accordance with the following evaluated basis; A: 60% or more, B: 40% or more and less than 60%, and C: less than 40%.

TNFα [5] = assay: Cytokine suppression using human peripheral blood mononuclear cells: TNFα; format: cell-based; conditions: human PBMC, lipopolysaccharide 1 ng/mL; read-out: TNFα Inhibitory Activity, Human PBMC (Test Example 4)
Description: First, peripheral blood mononuclear cells (PBMC) were separated from whole blood by specific gravity centrifugation. Then, the isolated peripheral blood mononuclear cells were added to RPMI-1640 medium (containing 10% fetal bovine serum, penicillin, streptomycin, L-glutamine, and 2-mercaptoethanol), and cultured in a 96-well plate at 37° C. under 5% CO2 for 0 to 1 hour. The test compound dissolved in dimethyl sulfoxide was added to each well, followed by further culture at 37° C. under 5% CO2 for 1 hour. A medium containing only dimethyl sulfoxide instead of the test compound was added to the control well. To each well, lipopolysaccharide (final concentration 1 ng/mL) as a TNFα production stimulant and an IL-23 production stimulant, or concanavalin A (final concentration 20 μg/mL) as an IL-17A production stimulant was added, followed by culture at 37° C. under 5% CO2. In addition, as IL-4 production stimulus, IL-5 production stimulus, and IL-13 production stimulus, PBMC was seeded on a 96-well plate previously coated with a CD3 antibody (final concentration 3 μg/mL), and a CD28 antibody (final concentration 5 ng/mL) was added. The culture was carried out for about 18 hours for the evaluation of the amounts of TNFα and IL-23, and about 48 hours for the evaluation of the amounts of IL-17A, IL-4, IL-5, and IL-13. After collecting the culture supernatant after culturing, the amount of each cytokine was measured by the sandwich ELISA method in the same manner as in Test Example 3, and the cytokine production suppression rate (inhibition rate) and the cytokine inhibitory activity (concentration for the inhibition rate of 50%) of each test compound were calculated.
The measurement results obtained by measuring the TNFα inhibitory activity and IL-5 inhibitory activity (50% inhibitory concentration) of the test compounds by the above method were evaluated in accordance with the following evaluated basis; A: less than 10 nM, B: 10 nM or more and less than 100 nM, and C: 100 nM or more. In addition, the measurement results obtained by measuring the IL-17A inhibitory activity, IL-23 inhibitory activity, IL-4 inhibitory activity, and IL-13 inhibitory activity (50% inhibitory concentration) of the test compounds were evaluated in accordance with the following evaluated basis; A: less than 500 nM, B: 500 nM or more and less than 5000 nM, and C: 5000 nM or more.

[6] = tested on: substance P-induced pruritus behavior, ICR mice; assay: Mouse pruritus model; format: in vivo; conditions: oral, substance P intradermally 2 hours after administration
Description: Evaluation was carried out using male ICR mice (5 to 7 weeks of age). A micro magnet was embedded under the skin of both hind limbs of the mice in advance, and the hair on the back of the mouse neck was shaved. On the day of the test, the test compound was dissolved or suspended in 0.5% w/v methylcellulose (0.5% MC) and orally administered. Two hours after administration of the test compound, 50 μL of 300 nM substance P dissolved in saline was intradermally administered to the back of the mouse neck. The blank was a non-pruritus-induced group orally administered with 0.5% MC instead of the test compound and intradermally administered with saline instead of substance P, and the pruritus induction control was a group orally administered with 0.5% MC instead of the test compound. The pruritus measurement system for small animals, MicroAct II, automatically measured pruritus behavior for 30 minutes immediately after intradermal administration.

[7] = finer grading of compounds rated A in Evaluation 1, read-out: PDE4 Inhibitory Activity (Evaluation 2)

Row | Compound | IC50 (PDE4; [7]) | IC50 (PDE4; scintillation proximity assay, read-out: PDE4 Inhibitory Activity (Evaluation 1; concentration for the inhibition rate of 50%)) | PDE4 inhibitory activity (PDE4) | Residual ratio (% remaining for 30-minute reaction) [1] | IC50 (TNFα [2]; Homo sapiens) | Mouse Chronic Dermatitis Model (Test Example 8), Oral: edema suppression rate [3] | Mouse Chronic Dermatitis Model (Test Example 8), Topical: edema suppression rate [3] | Mouse DTH Model (Test Example 11), Topical: edema suppression rate [4] | IC50 (PDE4; scintillation proximity assay, class symbols of Evaluation 1, read-out: PDE4 Inhibitory Activity (concentration for the inhibition rate of 50%, IC50), Evaluation 1) | IC50 (TNFα [2]) | IC50 (TNFα [5]) | scratching behavior (pruritus behavior for 30 minutes) [6]
1 | CC(O)C(F)(F)Oc1ccc(-c2nccs2)c2oc(N3CC4CC(C3)N4)nc12 (single isomer, unassigned) [Example 251, 1-((2-(3,6-Diazabicyclo[3.1.1]heptan-3-yl)-7-(thiazol-2-yl)benzo[d]oxazol-4-yl)oxy)-1,1-difluoropropan-2-ol] | ≤ 0.001 µM | < 0.1 µM | particularly excellent | A (A: a % remaining rate of 75% or more) | < 0.1 µM | B (B: 40% or more and less than 70%) | A (A: 100% or more) | B (B: 40% or more and less than 60%) |  |  |  | 
2 | OC(c1ccc(-c2nccs2)c2oc(N3CC4CCC(C3)N4)nc12)C(F)(F)F (stereo not shown) [Example 119, 1-(2-(3,8-Diazabicyclo[3.2.1]octan-3-yl)-7-(thiazol-2-yl)benzo[d]oxazol-4-yl)-2,2,2-trifluoroethan-1-ol] | ≤ 0.001 µM |  | particularly excellent |  |  | A (A: 70% or more) |  |  | < 0.1 µM | < 0.1 µM | < 0.01 µM | 
3 | N#Cc1ccc(Oc2ccc3c(c2)COB3O)cc1 [crisaborole, reference compound] | > 0.1 µM |  |  |  |  |  | C (C: less than 70%) | C (C: less than 40%) |  |  | > 0.1 µM | 
4 | CC(C)(C(=O)O)c1ccc(C(O)CCCN2CCC(C(O)(c3ccccc3)c3ccccc3)CC2)cc1 (stereo not shown) [fexofenadine, reference compound] |  |  |  |  |  |  |  |  |  |  |  | did not suppress scratching behavior
